Reference: patent publication US20230139922A1, “BACITRACIN-ALGINATE OLIGOMER CONJUGATES” (AlgiPharma AS, priority 2016, published 2023)
≈ marks a conversion by molar mass, not a printed value. Read-outs that look alike come from different tables or passages of the source. Where a SMILES comes first, the peptide text is derived from it. Bridges are numbered along the chain shown (N, C = ends). [ ]: non-standard residue; d: D form. The star is where a group is joined. Ileψ(thiazoline)Cys = CC[C@H](C)[C@H](N)C1=N[C@H](C(=O)*)CS1; dOrn = NCCC[C@@H](N)C(=O)O

Assays:
Type in all cases: cell-based
Acinetobacter baumannii = test system: Acinetobacter baumannii
Method: (§1) The strains used for susceptibility testing include both culture collection strains and clinical isolates are recited below. Their known relevant genotypes and origin have been described by Khan et al. supra.
(§2) The MICs of alginate oligomers, bacitracin and alginate oligomer conjugates thereof were determined for isolates V2, V3, VS, V19, E68 and E75 using the broth microdilution method in accordance with standard guidelines (CLSI 2012). Test organisms were suspended in Mueller Hinton cation adjusted (MH) broth (100 μL, 1-5×10^4 CFU/mL) and incubated in 96-well microtitre plates in serial two-fold dilutions of the test compounds. The MIC was defined as the lowest concentration of test compound that produced no visible growth after 16-20 hours.

Escherichia coli = test system: Escherichia coli
Method: as §1, §2

Klebsiella pneumoniae = test system: Klebsiella pneumoniae
Method: as §1, §2

[1] = test system: Pseudomonas aeruginosa (301), MDR-PSA isolate
Method: as §1, §2

V33 = assay: MIC, broth microdilution (CLSI 2012), isolate V33; settings: Batch 1; MH broth, 16-20 hours
[2] = test system: Staphylococcus aureus (Gram positive); assay: Antimicrobial activity (MIC) against Gram positive species; settings: summary in words
Method: as §1, §2

[3] = test system: Gram negative species tested (Pseudomonas aeruginosa, Klebsiella pneumonia, Escherichia coli and Acinetobacter baumannii); assay: Antimicrobial activity (MIC) against Gram negative species; settings: summary in words
Method: as §1, §2

`CC[C@H](C)[C@H](N)C1=N[C@H](C(=O)N[C@@H](CC(C)C)C(=O)N[C@H](CCC(=O)O)C(=O)N[C@H](C(=O)N[C@H]2CCCCNC(=O)[C@H](CC(N)=O)NC(=O)[C@@H](CC(=O)O)NC(=O)[C@H](Cc3cnc[nH]3)NC(=O)[C@@H](Cc3ccccc3)NC(=O)[C@H]([C@@H](C)CC)NC(=O)[C@@H](CCCN)NC2=O)[C@@H](C)CC)CS1` [Bacitracin, bacitracin] ({Ileψ(thiazoline)Cys}-L[dE]IK[dOrn]I[dF]H[dD]N; lactam 4-C) was tested, and the “MIC V19” value (Acinetobacter baumannii) was 640 µg/mL (≈ 450 µM), the “MIC V19” value (Acinetobacter baumannii; Batch 1, MH broth, 16-20 hours) was greater than 128 µg/mL and the “MIC V5” value (Escherichia coli) was 640 µg/mL (≈ 450 µM). For the same compound, the “MIC V5” value (Escherichia coli; Batch 1, MH broth, 16-20 hours) was greater than 128 µg/mL, the “MIC V3” value (Klebsiella pneumoniae) was greater than 8192 µg/mL and the “MIC V3” value (Klebsiella pneumoniae; Batch 1, MH broth, 16-20 hours) was greater than 128 µg/mL. For the same compound, the “MIC V2” value ([1]; 301), MDR-PSA isolate) was greater than 8192 µg/mL, the “MIC V2” value ([1]; Batch 1, MH broth, 16-20 hours) was greater than 128 µg/mL and the “MIC V33” value (V33) was greater than 128 µg/mL. The “antimicrobial activity against Staphylococcus aureus (Gram positive)” value [2] was “high antimicrobial activity” and the “antimicrobial activity against the Gram negative species tested” value [3] was “but not the Gram negative species tested”.
